Several values for one entry are separate records, joined by “and”; a condition that tells them apart may be missing. Equal entries are not always repeated.
Legend:
[1] = Urinary excretions of β-lactam antibiotics after rectal suppository (rabbit); type: in vivo; details: Compound (I) 5%, Witepsol H-15
Procedure: The absorption into the circulation through the rectum of the rectal suppositories thus prepared was determined by measuring urinary excretion of the pharmacologically-active substance.
Thus, Sarcina lutea and Bacillus subtilis were used as assay organisms for penicillins and cephalosporins, respectively, and the assays were performed by the paper disk method (cultivation at 37° C. for from 15 to 20 hours).

[2] = Blood glucose level after rectal insulin administration (rabbit); type: in vivo; details: rectal suppository, Insulin 6 I. U., Compound (I) 5%; for Blood glucose level 0 hr.: Witepsol H-15, baseline, level at hour 0 considered 100%; for Blood glucose level 0.5 hr. / Blood glucose level 0.75 hr. / Blood glucose level 1.0 hr. / Blood glucose level 2.0 hr. / Blood glucose level […].: Witepsol H-15, relative to hour 0 = 100%
Excerpt: To measure glucose levels, blood samples were taken from the auricular vein at timed intervals and assayed by the glucose oxidase method.
The urinary excretion values in Tables 1 to 5 are percentages based on the dose administered. The blood glucose levels in Table 6 are relative blood glucose levels when the blood glucose level at hour 0 is considered to be 100%.

[3] = Urinary excretions of aminoglycoside antibiotics after rectal suppository (rabbit); details: Compound (I) 5%, Witepsol H-15
Procedure: The thus-obtained suppositories were administered to rabbits and the urinary excretions of the pharmacologically-active substance were determined.
(§1) Each rectal suppository was administered to a depth of 2 cm from the anus of a rabbit fasted 24 hours.
(§2) To measure the urinary excretions, urine samples were collected after administration at timed intervals, diluted and assayed by the biological assay procedure.
Thus, Bacillus subtilis was used as assay organism and the assays were performed by the cylinder plate method (cultivation at 37° C. for 15 to 20 hours).

[4] = Urinary excretions of AB-PC after administration of AB-PC rectal suppository (human); type: in vivo; details: AB-PC 125 mg (potency); for Urinary excretions (%) 0-2 (hr.) / Urinary excretions (%) 2-4 (hr.) / Urinary excretions (%) 4-6 (hr.) / Urinary excretions (%) Total (0-6 hr.): Compound (I) 10%, Witepsol H-15, Table 3; for Urinary excretions of AB-PC (%) (0-6 hr.): Witepsol H-15, % of dose
Procedure: The thus-obtained suppositories were administered to healthy adult male humans from the anus, and the urinary excretions of AB-PC were determined.

[5] = Urinary excretions of peptide drugs after rectal suppository (rabbit); details: Colistin Sodium Methanesulfonate 150,000 IU, Compound (I) 5%, Witepsol H-15
Procedure: The thus-obtained suppositories were administered to rabbits from the anus, and the urinary excretions of the pharmacologically-active substance were determined.
as §1, §2
Thus, Escherichia coli was used as assay organism and the assays were performed by the cylinder plate method (cultivation at 37° C. for 15 to 20 hours).

[6] = Fortimicin sulfate 125 mg (potency)
[7] = Gentamicin sulfate 125 mg (potency)
[8] = Dibekacin sulfate 125 mg (potency)
[9] = Kanamycin sulfate 125 mg (potency)

SMILES	Blood glucose level 0 hr. [2] [%]	Blood glucose level 0.5 hr. [2] [%]	Blood glucose level 0.75 hr. [2] [%]	Blood glucose level 1.0 hr. [2] [%]	Blood glucose level 2.0 hr. [2] [%]	Blood glucose level […]. [2] [%]	Urinary excretions (%) 0-2 hr. [3, 7] [%]	Urinary excretions (%) 2-4 hr. [3, 7] [%]	Urinary excretions (%) 4-6 hr. [3, 7] [%]	Urinary excretions (%) Total (0-6 hr.) [3, 7] [%]	Urinary excretions (%) 0-2 (hr.) [4] [%]	Urinary excretions (%) 2-4 (hr.) [4] [%]	Urinary excretions (%) 4-6 (hr.) [4] [%]	Urinary excretions (%) Total (0-6 hr.) [4] [%]	Urinary excretions (%) 0-2 hr. [5]	Urinary excretions (%) 2-4 hr. [5]	Urinary excretions (%) 4-6 hr. [5]	Urinary excretions (%) Total (0-6 hr.) [5]	Urinary excretions of AB-PC (%) (0-6 hr.) ([4]; added compound 10%)	Urinary excretions (%) 0-2 hr. ([1]; FK-749 125 mg (potency)) [%]	also measured
CCCC(=O)NC(C(=O)O)c1ccccc1 (racemic) [Compound 29-Na, N--Butyryl-DL-phenylglycine]	100	60.0	50.6	55.0	111.3	81.2															Urinary excretions (%) 0-2 hr. ([1]; 6059-S 125 mg (potency)): 47.2%; Urinary excretions (%) 2-4 hr. ([1]; 6059-S 125 mg (potency)): 8.6%; Urinary excretions (%) 4-6 hr. ([1]; 6059-S 125 mg (potency)): 2.0%; Urinary excretions (%) Total (0-6 hr.) ([1]; 6059-S 125 mg (potency)): 57.8%
CCCCCCCC(=O)N[C@@H](Cc1ccccc1)C(=O)O [Compound 23-Na, N--Capryloyl-L-phenylalanine]	100	59.0			103.0	69.5	45.0	6.0	1.5	52.5	24.0	3.0	1.2	28.2	21.2% and 18.5%	10.0% and 8.0%	1.2% and 0.8%	32.4% and 27.3%			Urinary excretions (%) 0-2 hr. [3, 6]: 46.0%; Urinary excretions (%) 2-4 hr. [3, 6]: 8.0%; Urinary excretions (%) 4-6 hr. [3, 6]: 2.0%; Urinary excretions (%) Total (0-6 hr.) [3, 6]: 56.0%
O=C(O)CCCCCCCCCCCC(=O)O [Compound 5-Na, 1,11-Undecamethylene dicarboxylic acid]	100	60.0	51.7	55.2	110.3	80.5															Urinary excretions (%) 0-2 hr. [3, 8]: 41.1%; Urinary excretions (%) 2-4 hr. [3, 8]: 8.8%; Urinary excretions (%) 4-6 hr. [3, 8]: 1.1%; Urinary excretions (%) Total (0-6 hr.) [3, 8]: 51.0%; Urinary excretions of AB-PC (%) (0-6 hr.) ([4]; Compound (I) 1%): 30.8%; Urinary excretions (%) 0-2 hr. ([1]; Cefotiam 125 mg (potency)): 40.0%; Urinary excretions (%) 2-4 hr. ([1]; Cefotiam 125 mg (potency)): 8.0%; Urinary excretions (%) 4-6 hr. ([1]; Cefotiam 125 mg (potency)): 2.1%; Urinary excretions (%) Total (0-6 hr.) ([1]; Cefotiam 125 mg (potency)): 60.1%
CCCCOc1ccc(C(=O)O)cc1 [Compound 3-Na, p-Butoxybenzoic acid]	100	60.0		50.5	103.3	79.5													20.9	41.6	Urinary excretions (%) 0-2 hr. [3, 9]: 45.1%; Urinary excretions (%) 4-6 hr. [3, 9]: 2.6%; Urinary excretions (%) Total (0-6 hr.) [3, 9]: 59.8%; Urinary excretions (%) 0-2 hr. ([1]; Cefmetazole 125 mg (potency)): 45.0%; Urinary excretions (%) 2-4 hr. ([1]; Cefmetazole 125 mg (potency)): 20.0%; Urinary excretions (%) 4-6 hr. ([1]; Cefmetazole 125 mg (potency)): 1.5%; Urinary excretions (%) Total (0-6 hr.) ([1]; Cefmetazole 125 mg (potency)): 66.5%; Urinary excretions (%) 2-4 hr. ([1]; FK-749 125 mg (potency)): 19.2%; Urinary excretions (%) 4-6 hr. ([1]; FK-749 125 mg (potency)): 3.0%; Urinary excretions (%) Total (0-6 hr.) ([1]; FK-749 125 mg (potency)): 63.8%
O=C(O)CCCCCCCCCCC(=O)O [Compound 2-Na, 1,10-Decamethylenedicarboxylic acid]	100	57.0	50.5		98.5	68.5	41.2	9.9	3.1	53.2					20.5%	9.2%	1.8%	31.5%	25.6		Urinary excretions (%) 0-2 hr. ([1]; Cefazolin 125 mg (potency)): 41.5%; Urinary excretions (%) 2-4 hr. ([1]; Cefazolin 125 mg (potency)): 16.9%; Urinary excretions (%) 4-6 hr. ([1]; Cefazolin 125 mg (potency)): 3.5%; Urinary excretions (%) Total (0-6 hr.) ([1]; Cefazolin 125 mg (potency)): 61.9%
CCCCCCCCCC(=O)N[C@H](C(=O)O)C(C)C [Compound 24-Na, N--Caprinoyl-L-valine]											18.0	5.1	1.0	23.1						45.0	Urinary excretions (%) 0-2 hr. ([1]; Cefotaxime 125 mg (potency)): 31.5%; Urinary excretions (%) 2-4 hr. ([1]; Cefotaxime 125 mg (potency)): 10.0%; Urinary excretions (%) 4-6 hr. ([1]; Cefotaxime 125 mg (potency)): 0.8%; Urinary excretions (%) Total (0-6 hr.) ([1]; Cefotaxime 125 mg (potency)): 42.3%; Urinary excretions (%) 2-4 hr. ([1]; FK-749 125 mg (potency)): 5.6%; Urinary excretions (%) 4-6 hr. ([1]; FK-749 125 mg (potency)): 2.5%; Urinary excretions (%) Total (0-6 hr.) ([1]; FK-749 125 mg (potency)): 53.1%

Reference: patent US4442090A, “Absorption-promoting compounds, compositions thereof with pharmaceuticals and/or bases for rectal administration and method of use” (Kyoto Yakuhin Kogyo Kabushiki Kaisha, priority 1980, dated 1984)
